Measured values taken from patent publication US20190365697A1, “Method for Treating Liver Dysfunction” (PROFEAT BIOTECHNOLOGY CO., LTD., priority 2017, published 2019).

System: dogs, whose liver functions were not improved after the administration of SAMe
Assay: Administration of SAMe followed by administration of Composition A1 to dogs; serum ALT, AST
Type: in vivo
Conditions: SAMe alone to dogs, clinically observed
Description: Therefore, Composition A1 was administered to 3 dogs, whose liver functions were not improved after the administration of SAMe. And the serum biochemistry values related to the liver function, ALT, AST and ALKP, were examined.

## C[S+](CC[C@H](N)C(=O)[O-])C[C@H]1O[C@@H](n2cnc3c(N)ncnc32)[C@H](O)[C@@H]1O (stereo partly shown) [SAMe, S-adenosylmethionine]
  improvement of liver functions: liver functions still cannot be improved
